Results published in paper PMC7265341, “Quantifying CDK inhibitor selectivity in live cells” (Nature Communications, 2020).
Where two headings read alike, the source gives them in different places.

Columns and labels:
CDK6/Cyclin D1 = CDK6/Cyclin D1 (Homo sapiens, UniProt Q00534); assay: NanoBRET live-cell target engagement, NanoLuc-CDK6/Cyclin D1 in HEK-293; assay type: binding; details: CDK6/D1, read-out: Inhibition at 10µM (%)
CDK14/Cyclin Y = CDK14/Cyclin Y (Homo sapiens, UniProt O94921); assay: NanoBRET live-cell target engagement, CDK14-NanoLuc/Cyclin Y in HEK-293; assay type: binding; details: CDK14/Y, read-out: Inhibition at 10µM (%)
CDK18/Cyclin Y = CDK18/Cyclin Y (Homo sapiens, UniProt Q07002); assay: NanoBRET live-cell target engagement, CDK18-NanoLuc/Cyclin Y in HEK-293; assay type: binding; details: for IC50: read-out: IC50
CDK8/Cyclin C = CDK8/Cyclin C (Homo sapiens, UniProt P49336); assay: NanoBRET live-cell target engagement, NanoLuc-CDK8/Cyclin C in HEK-293; assay type: binding; details: CDK8/C, read-out: Inhibition at 10µM (%)
CDK11B/Cyclin L2 = CDK11B/Cyclin L2 (Homo sapiens, UniProt P21127); assay: NanoBRET live-cell target engagement, CDK11B-NanoLuc/Cyclin L2 in HEK-293; assay type: binding; details: CDK11b/L2; for IC50: read-out: IC50; for inhibition at 10 µM: read-out: Inhibition at 10µM (%)
CDK1/Cyclin E1 = CDK1/Cyclin E1 (Homo sapiens, UniProt P06493); assay: NanoBRET live-cell target engagement, CDK1-NanoLuc/Cyclin E1 in HEK-293; assay type: binding; details: CDK1/E1, read-out: Inhibition at 10µM (%)
CDK10/Cyclin L2 = CDK10/Cyclin L2 (Homo sapiens, UniProt Q15131); assay: NanoBRET live-cell target engagement, CDK10-NanoLuc/Cyclin L2 in HEK-293; details: for IC50: IC50 (nM), CDK10/L2; for inhibition at 10 µM: read-out: Inhibition at 10µM (%), CDK10/L2
CDK3/Cyclin E1 = CDK3/Cyclin E1 (Homo sapiens, UniProt Q00526); assay: NanoBRET live-cell target engagement, CDK3-NanoLuc/Cyclin E1 in HEK-293; assay type: binding; details: CDK3/E1, read-out: Inhibition at 10µM (%)
CDK16/Cyclin Y = CDK16/Cyclin Y (Homo sapiens, UniProt Q00536); assay: NanoBRET live-cell target engagement, CDK16-NanoLuc/Cyclin Y in HEK-293; assay type: binding; details: CDK16/Y; for IC50: read-out: IC50; for inhibition at 10 µM: read-out: Inhibition at 10µM (%)
CDK2/Cyclin E1 = CDK2/Cyclin E1 (Homo sapiens, UniProt P24941); assay: NanoBRET live-cell target engagement, CDK2-NanoLuc/Cyclin E1 in HEK-293; assay type: binding; details: CDK2/E1, read-out: Inhibition at 10µM (%)
CDK4/Cyclin D1 = CDK4/Cyclin D1 (Homo sapiens, UniProt P11802); assay: NanoBRET live-cell target engagement, NanoLuc-CDK4/Cyclin D1 in HEK-293; assay type: binding; details: CDK4/D1, read-out: Inhibition at 10µM (%)
CDK7 = CDK7 (Homo sapiens, UniProt P50613); assay: NanoBRET live-cell target engagement, NanoLuc-CDK7 in HEK-293; assay type: binding; details: CDK7; for IC50: read-out: IC50; for inhibition at 10 µM: read-out: Inhibition at 10µM (%)
CDK15/Cyclin Y = CDK15/Cyclin Y (Homo sapiens, UniProt Q96Q40); assay: NanoBRET live-cell target engagement, NanoLuc-CDK15/Cyclin Y in HEK-293; assay type: binding; details: CDK15/Y; for IC50: read-out: IC50; for inhibition at 10 µM: read-out: Inhibition at 10µM (%)
CDK9/Cyclin K = CDK9/Cyclin K (Homo sapiens, UniProt P50750); assay: NanoBRET live-cell target engagement, NanoLuc-CDK9/Cyclin K in HEK-293; assay type: binding; details: CDK9/K; for inhibition at 10 µM: read-out: Inhibition at 10µM (%)
CDK13/Cyclin K = CDK13/Cyclin K (Homo sapiens, UniProt Q14004); assay: NanoBRET live-cell target engagement, CDK13-NanoLuc/Cyclin K in HEK-293; assay type: binding; details: CDK13/K, read-out: Inhibition at 10µM (%)
CDK12/Cyclin K = CDK12/Cyclin K (Homo sapiens, UniProt Q9NYV4); assay: NanoBRET live-cell target engagement, CDK12-NanoLuc/Cyclin K in HEK-293; assay type: binding; details: read-out: Inhibition at 10µM (%), CDK12/K
CDK20/Cyclin H = CDK20/Cyclin H (Homo sapiens, UniProt Q8IZL9); assay: NanoBRET live-cell target engagement, NanoLuc-CDK20/Cyclin H in HEK-293; assay type: binding; details: CDK20/H, read-out: Inhibition at 10µM (%)
CDK17/Cyclin Y = CDK17/Cyclin Y (Homo sapiens, UniProt Q00537); assay: NanoBRET live-cell target engagement, CDK17-NanoLuc/Cyclin Y in HEK-293; assay type: binding; details: CDK17/Y; for IC50: read-out: IC50; for inhibition at 10 µM: read-out: Inhibition at 10µM (%)
CDK19/Cyclin C = CDK19/Cyclin C (Homo sapiens, UniProt Q9BWU1); assay: NanoBRET live-cell target engagement, NanoLuc-CDK19/Cyclin C in HEK-293; details: read-out: Inhibition at 10µM (%), CDK19/C
CDK5/CDK5R1 = CDK5/CDK5R1 (Homo sapiens, UniProt Q00535); assay: NanoBRET live-cell target engagement, CDK5-NanoLuc/CDK5R1 in HEK-293; assay type: binding; details: CDK5/CDK5R1, read-out: Inhibition at 10µM (%)

Chain of CDK7 (P50613 whole entry): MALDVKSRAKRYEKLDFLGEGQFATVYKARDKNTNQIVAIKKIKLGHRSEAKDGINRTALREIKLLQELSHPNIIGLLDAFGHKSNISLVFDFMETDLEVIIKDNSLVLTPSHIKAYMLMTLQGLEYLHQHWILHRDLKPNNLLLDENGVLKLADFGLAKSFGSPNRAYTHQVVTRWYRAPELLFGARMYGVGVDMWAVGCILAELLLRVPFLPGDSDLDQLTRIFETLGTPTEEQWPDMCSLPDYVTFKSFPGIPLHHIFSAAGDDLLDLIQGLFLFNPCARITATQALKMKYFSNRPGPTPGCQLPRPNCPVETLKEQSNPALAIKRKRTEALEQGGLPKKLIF
Chain of CDK15/Cyclin Y (Q96Q40 whole entry): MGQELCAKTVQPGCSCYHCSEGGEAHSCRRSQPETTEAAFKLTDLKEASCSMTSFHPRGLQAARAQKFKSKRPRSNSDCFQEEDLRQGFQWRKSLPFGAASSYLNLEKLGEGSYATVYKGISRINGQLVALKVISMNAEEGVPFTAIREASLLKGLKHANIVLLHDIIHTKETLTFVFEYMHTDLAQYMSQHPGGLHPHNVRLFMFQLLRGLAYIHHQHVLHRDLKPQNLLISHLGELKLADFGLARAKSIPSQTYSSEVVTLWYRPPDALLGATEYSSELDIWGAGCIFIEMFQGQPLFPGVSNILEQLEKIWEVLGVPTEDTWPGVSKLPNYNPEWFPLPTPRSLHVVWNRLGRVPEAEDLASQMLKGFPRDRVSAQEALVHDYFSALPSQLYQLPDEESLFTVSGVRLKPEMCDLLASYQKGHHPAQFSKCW
Chain of CDK15/Cyclin Y (Q8ND76 whole entry partner): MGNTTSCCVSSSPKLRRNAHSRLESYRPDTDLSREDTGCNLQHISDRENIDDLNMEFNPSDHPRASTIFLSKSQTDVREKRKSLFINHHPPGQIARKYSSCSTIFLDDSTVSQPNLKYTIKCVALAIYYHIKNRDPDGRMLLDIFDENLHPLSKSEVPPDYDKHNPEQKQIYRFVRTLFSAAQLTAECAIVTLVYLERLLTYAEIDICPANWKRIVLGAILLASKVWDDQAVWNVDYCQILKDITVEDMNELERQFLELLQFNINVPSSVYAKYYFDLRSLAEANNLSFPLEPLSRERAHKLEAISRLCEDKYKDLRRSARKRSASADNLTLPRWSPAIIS
Chain of CDK13/Cyclin K (O75909 whole entry): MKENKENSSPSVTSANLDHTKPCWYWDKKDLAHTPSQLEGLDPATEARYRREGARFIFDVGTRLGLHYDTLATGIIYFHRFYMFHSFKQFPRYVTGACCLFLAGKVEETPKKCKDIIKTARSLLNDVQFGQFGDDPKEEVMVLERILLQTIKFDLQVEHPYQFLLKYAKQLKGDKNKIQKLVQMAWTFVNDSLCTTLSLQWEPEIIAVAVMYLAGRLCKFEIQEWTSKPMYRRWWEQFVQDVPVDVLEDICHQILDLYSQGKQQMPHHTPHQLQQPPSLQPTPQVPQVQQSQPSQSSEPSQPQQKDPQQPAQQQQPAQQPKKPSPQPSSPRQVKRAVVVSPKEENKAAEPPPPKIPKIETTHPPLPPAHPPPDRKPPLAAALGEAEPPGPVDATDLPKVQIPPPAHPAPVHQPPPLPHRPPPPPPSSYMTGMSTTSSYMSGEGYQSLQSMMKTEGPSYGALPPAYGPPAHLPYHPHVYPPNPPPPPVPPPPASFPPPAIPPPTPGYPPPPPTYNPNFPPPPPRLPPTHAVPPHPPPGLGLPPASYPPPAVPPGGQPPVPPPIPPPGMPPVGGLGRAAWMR
Chain of CDK13/Cyclin K (Q14004 other isoform, or with tags, fused parts or gaps): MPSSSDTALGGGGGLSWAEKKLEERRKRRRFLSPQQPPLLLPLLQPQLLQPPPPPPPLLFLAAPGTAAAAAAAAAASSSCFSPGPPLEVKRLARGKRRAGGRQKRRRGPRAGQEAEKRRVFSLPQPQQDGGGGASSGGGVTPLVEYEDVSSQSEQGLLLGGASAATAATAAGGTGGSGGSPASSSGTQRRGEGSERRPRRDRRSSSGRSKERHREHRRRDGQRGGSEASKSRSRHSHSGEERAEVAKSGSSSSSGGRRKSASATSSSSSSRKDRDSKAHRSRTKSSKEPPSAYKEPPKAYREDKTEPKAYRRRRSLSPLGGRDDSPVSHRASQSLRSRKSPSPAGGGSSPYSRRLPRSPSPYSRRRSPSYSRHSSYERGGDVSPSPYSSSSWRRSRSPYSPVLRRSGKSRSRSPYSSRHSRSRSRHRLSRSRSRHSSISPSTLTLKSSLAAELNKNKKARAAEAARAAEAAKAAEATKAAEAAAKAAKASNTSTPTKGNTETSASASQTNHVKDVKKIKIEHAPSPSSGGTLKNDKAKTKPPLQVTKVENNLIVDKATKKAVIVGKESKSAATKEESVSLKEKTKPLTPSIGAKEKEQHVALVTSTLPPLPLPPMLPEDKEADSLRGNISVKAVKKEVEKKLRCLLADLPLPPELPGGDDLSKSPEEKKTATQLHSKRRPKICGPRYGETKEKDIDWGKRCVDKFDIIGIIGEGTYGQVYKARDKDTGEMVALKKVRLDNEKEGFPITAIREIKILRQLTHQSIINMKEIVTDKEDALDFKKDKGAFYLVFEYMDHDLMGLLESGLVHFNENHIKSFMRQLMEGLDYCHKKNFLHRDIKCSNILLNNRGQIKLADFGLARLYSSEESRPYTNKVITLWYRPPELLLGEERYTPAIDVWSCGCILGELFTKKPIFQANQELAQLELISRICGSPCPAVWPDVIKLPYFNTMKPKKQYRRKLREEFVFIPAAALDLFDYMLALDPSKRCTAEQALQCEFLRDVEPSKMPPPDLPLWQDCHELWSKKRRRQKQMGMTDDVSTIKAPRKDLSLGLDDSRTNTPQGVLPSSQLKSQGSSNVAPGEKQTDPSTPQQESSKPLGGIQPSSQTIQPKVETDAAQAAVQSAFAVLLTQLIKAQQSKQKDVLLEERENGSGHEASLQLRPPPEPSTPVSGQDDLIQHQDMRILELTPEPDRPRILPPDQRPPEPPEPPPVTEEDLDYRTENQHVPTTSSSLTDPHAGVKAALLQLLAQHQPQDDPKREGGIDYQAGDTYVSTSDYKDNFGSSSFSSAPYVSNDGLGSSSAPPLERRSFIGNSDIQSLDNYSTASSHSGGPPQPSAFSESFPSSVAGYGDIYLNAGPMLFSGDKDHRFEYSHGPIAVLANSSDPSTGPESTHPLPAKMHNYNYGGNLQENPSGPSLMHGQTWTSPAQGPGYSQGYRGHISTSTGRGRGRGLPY
Chain of CDK12/Cyclin K (Q9NYV4 1-1481 isoform Q9NYV4-2): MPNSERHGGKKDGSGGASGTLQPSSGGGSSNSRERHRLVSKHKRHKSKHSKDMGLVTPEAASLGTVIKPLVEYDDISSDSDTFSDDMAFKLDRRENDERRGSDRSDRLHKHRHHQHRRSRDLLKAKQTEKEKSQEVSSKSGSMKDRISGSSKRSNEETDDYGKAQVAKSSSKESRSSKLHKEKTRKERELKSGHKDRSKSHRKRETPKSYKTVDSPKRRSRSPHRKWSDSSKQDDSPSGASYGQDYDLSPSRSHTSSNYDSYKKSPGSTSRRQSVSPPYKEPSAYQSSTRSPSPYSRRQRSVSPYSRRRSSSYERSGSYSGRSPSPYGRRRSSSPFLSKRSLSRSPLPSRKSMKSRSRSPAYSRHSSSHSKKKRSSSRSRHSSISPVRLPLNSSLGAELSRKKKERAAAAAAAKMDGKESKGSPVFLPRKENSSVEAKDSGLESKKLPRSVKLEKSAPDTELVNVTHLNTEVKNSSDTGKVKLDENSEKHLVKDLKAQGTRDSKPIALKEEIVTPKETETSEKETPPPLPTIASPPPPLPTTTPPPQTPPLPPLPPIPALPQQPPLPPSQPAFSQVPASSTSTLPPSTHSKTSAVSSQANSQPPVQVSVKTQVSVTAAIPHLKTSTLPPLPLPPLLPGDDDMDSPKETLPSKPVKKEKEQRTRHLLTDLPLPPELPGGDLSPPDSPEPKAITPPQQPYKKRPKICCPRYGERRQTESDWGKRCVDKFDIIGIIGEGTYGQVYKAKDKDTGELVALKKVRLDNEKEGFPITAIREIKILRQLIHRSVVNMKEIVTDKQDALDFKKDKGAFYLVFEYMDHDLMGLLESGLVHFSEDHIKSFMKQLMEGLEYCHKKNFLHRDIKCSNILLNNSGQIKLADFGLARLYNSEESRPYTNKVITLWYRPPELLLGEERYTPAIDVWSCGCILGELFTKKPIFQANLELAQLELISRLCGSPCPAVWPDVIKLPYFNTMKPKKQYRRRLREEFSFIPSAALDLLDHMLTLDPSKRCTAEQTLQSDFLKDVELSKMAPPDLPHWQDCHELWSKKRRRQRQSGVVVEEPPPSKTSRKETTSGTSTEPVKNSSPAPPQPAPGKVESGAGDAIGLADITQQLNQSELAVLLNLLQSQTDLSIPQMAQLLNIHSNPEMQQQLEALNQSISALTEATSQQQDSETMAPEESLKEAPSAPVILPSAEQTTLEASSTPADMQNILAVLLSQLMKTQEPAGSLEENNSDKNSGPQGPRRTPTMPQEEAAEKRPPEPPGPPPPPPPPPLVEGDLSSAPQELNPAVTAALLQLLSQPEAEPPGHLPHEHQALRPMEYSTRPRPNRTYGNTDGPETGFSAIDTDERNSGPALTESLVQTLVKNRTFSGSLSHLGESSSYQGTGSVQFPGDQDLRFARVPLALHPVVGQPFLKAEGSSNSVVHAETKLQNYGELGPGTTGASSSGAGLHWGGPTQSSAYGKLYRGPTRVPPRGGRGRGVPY
Chain of CDK12/Cyclin K (O75909 whole entry partner): as the sequence (O75909 whole entry) above
Chain of CDK10/Cyclin L2 (Q15131 whole entry): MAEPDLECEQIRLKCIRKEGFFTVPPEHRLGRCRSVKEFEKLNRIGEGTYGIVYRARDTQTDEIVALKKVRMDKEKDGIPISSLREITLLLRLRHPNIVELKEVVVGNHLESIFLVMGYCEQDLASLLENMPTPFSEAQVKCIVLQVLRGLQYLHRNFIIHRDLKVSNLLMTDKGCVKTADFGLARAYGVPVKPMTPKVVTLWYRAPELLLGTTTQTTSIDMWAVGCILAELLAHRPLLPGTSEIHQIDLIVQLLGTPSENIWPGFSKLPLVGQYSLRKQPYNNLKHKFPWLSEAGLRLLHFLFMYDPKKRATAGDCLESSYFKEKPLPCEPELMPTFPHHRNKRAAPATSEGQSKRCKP

## COc1ccc(F)cc1-c1cc(NC(=O)C2CCCNC2)ncc1Cl (stereo not drawn) [CDK inhibitor 2]
CDK6/Cyclin D1; average
  inhibition at 10 µM: 77.1%
CDK6/Cyclin D1; experiment 1
  inhibition at 10 µM: 76.2%
CDK6/Cyclin D1; experiment 2
  inhibition at 10 µM: 78%
CDK14/Cyclin Y; average
  inhibition at 10 µM: 86.5%
CDK14/Cyclin Y; experiment 1
  inhibition at 10 µM: 89.6%
CDK14/Cyclin Y; experiment 2
  inhibition at 10 µM: 83.5%
CDK18/Cyclin Y; CDK18/Y, average (± SEM where n=3)
  IC50: 140 ± 30 nM
CDK18/Cyclin Y; CDK18/Y, experiment 1
  IC50: 104 nM
CDK18/Cyclin Y; CDK18/Y, experiment 1, read-out: Inhibition at 10µM (%)
  inhibition at 10 µM: 93.5%
CDK18/Cyclin Y; CDK18/Y, experiment 2
  IC50: 210 nM
CDK18/Cyclin Y; CDK18/Y, experiment 2, read-out: Inhibition at 10µM (%)
  inhibition at 10 µM: 102%
CDK18/Cyclin Y; CDK18/Y, experiment 3
  IC50: 112 nM
CDK18/Cyclin Y; read-out: Inhibition at 10µM (%), CDK18/Y, average
  inhibition at 10 µM: 97.8%
CDK8/Cyclin C; average
  inhibition at 10 µM: 58%
CDK8/Cyclin C; experiment 1
  inhibition at 10 µM: 65.9%
CDK8/Cyclin C; experiment 2
  inhibition at 10 µM: 50%
CDK11B/Cyclin L2; average (± SEM where n=3)
  IC50: 17 ± 5 nM
CDK11B/Cyclin L2; average
  inhibition at 10 µM: 95.6%
CDK11B/Cyclin L2; experiment 1
  IC50: 9 nM
  inhibition at 10 µM: 96.5%
CDK11B/Cyclin L2; experiment 2
  IC50: 18 nM
  inhibition at 10 µM: 94.6%
CDK11B/Cyclin L2; experiment 3
  IC50: 25 nM
CDK1/Cyclin E1; average
  inhibition at 10 µM: 79.7%
CDK1/Cyclin E1; experiment 1
  inhibition at 10 µM: 76.7%
CDK1/Cyclin E1; experiment 2
  inhibition at 10 µM: 82.8%
CDK10/Cyclin L2; average (± SEM where n=3)
  IC50: 500 ± 200 nM
CDK10/Cyclin L2; experiment 1
  IC50: 340 nM
  inhibition at 10 µM: 83.7%
CDK10/Cyclin L2; experiment 2
  IC50: 230 nM
  inhibition at 10 µM: 82.5%
CDK10/Cyclin L2; experiment 3
  IC50: 972 nM
CDK10/Cyclin L2; average
  inhibition at 10 µM: 83.1%
CDK3/Cyclin E1; average
  inhibition at 10 µM: 92.7%
CDK3/Cyclin E1; experiment 1
  inhibition at 10 µM: 92.3%
CDK3/Cyclin E1; experiment 2
  inhibition at 10 µM: 93%
CDK16/Cyclin Y; average (± SEM where n=3)
  IC50: 100 ± 30 nM
CDK16/Cyclin Y; experiment 1
  IC50: 51 nM
  inhibition at 10 µM: 89.7%
CDK16/Cyclin Y; experiment 2
  IC50: 140 nM
  inhibition at 10 µM: 90.1%
CDK16/Cyclin Y; experiment 3
  IC50: 117 nM
CDK2/Cyclin E1; average
  inhibition at 10 µM: 65.6%
CDK2/Cyclin E1; experiment 1
  inhibition at 10 µM: 61.9%
CDK2/Cyclin E1; experiment 2
  inhibition at 10 µM: 69.3%
CDK4/Cyclin D1; average
  inhibition at 10 µM: 83.4%
CDK4/Cyclin D1; experiment 1
  inhibition at 10 µM: 81.2%
CDK4/Cyclin D1; experiment 2
  inhibition at 10 µM: 85.7%
CDK7; average (± SEM where n=3)
  IC50: 120 ± 50 nM
CDK7; average
  inhibition at 10 µM: 82.8%
CDK7; experiment 1
  IC50: 83 nM
  inhibition at 10 µM: 83.3%
CDK7; experiment 2
  IC50: 58 nM
  inhibition at 10 µM: 82.3%
CDK7; experiment 3
  IC50: 215 nM
CDK15/Cyclin Y; average (± SEM where n=3)
  IC50: 540 ± 70 nM
CDK15/Cyclin Y; average
  inhibition at 10 µM: 92.4%
CDK15/Cyclin Y; experiment 1
  IC50: 407 nM
  inhibition at 10 µM: 93.4%
CDK15/Cyclin Y; experiment 2
  IC50: 570 nM
  inhibition at 10 µM: 91.4%
CDK15/Cyclin Y; experiment 3
  IC50: 648 nM
CDK9/Cyclin K; average (± SEM where n=3)
  IC50: 3.5 ± 0.8 nM
CDK9/Cyclin K; average
  inhibition at 10 µM: 98.4%
CDK9/Cyclin K; experiment 1
  IC50: 5 nM
  inhibition at 10 µM: 99.1%
CDK9/Cyclin K; experiment 2
  IC50: 2.3 nM
  inhibition at 10 µM: 97.8%
CDK9/Cyclin K; experiment 3
  IC50: 3 nM
CDK13/Cyclin K; average
  inhibition at 10 µM: 41.2%
CDK13/Cyclin K; experiment 1
  inhibition at 10 µM: 31.4%
CDK13/Cyclin K; experiment 2
  inhibition at 10 µM: 51.1%
CDK12/Cyclin K; average
  inhibition at 10 µM: 49.3%
CDK12/Cyclin K; experiment 1
  inhibition at 10 µM: 41%
CDK12/Cyclin K; experiment 2
  inhibition at 10 µM: 57.6%
CDK20/Cyclin H; experiment 1
  inhibition at 10 µM: 18.7%
CDK20/Cyclin H; experiment 2
  inhibition at 10 µM: 27.3%
CDK17/Cyclin Y; average (± SEM where n=3)
  IC50: 90 ± 20 nM
CDK17/Cyclin Y; average
  inhibition at 10 µM: 91.6%
CDK17/Cyclin Y; experiment 1
  IC50: 57 nM
  inhibition at 10 µM: 90.5%
CDK17/Cyclin Y; experiment 2
  IC50: 110 nM
  inhibition at 10 µM: 92.6%
CDK17/Cyclin Y; experiment 3
  IC50: 99 nM
CDK19/Cyclin C; average
  inhibition at 10 µM: 72.6%
CDK19/Cyclin C; experiment 1
  inhibition at 10 µM: 75.1%
CDK19/Cyclin C; experiment 2
  inhibition at 10 µM: 70.1%
CDK5/CDK5R1; average
  inhibition at 10 µM: 40%
CDK5/CDK5R1; experiment 1
  inhibition at 10 µM: 37.7%
CDK5/CDK5R1; experiment 2
  inhibition at 10 µM: 42.4%
